Results reported in patent US9150592B2, “Heterocyclic nuclear hormone receptor modulators” (AbbVie Inc., priority 2012, dated 2015).

The compounds below were run against T1, Glucocorticoid Receptor (GR) (Homo sapiens, UniProt P04150) (assay: GR Fluorescence Polarization Assay (PolarScreen Glucocorticoid Receptor Competitor Assay, Red)). Conditions: IC50 class ranges, read-out: GR binding.
T1 construct: purchased Invitrogen P2893
T1 sequence (P04150 1-777): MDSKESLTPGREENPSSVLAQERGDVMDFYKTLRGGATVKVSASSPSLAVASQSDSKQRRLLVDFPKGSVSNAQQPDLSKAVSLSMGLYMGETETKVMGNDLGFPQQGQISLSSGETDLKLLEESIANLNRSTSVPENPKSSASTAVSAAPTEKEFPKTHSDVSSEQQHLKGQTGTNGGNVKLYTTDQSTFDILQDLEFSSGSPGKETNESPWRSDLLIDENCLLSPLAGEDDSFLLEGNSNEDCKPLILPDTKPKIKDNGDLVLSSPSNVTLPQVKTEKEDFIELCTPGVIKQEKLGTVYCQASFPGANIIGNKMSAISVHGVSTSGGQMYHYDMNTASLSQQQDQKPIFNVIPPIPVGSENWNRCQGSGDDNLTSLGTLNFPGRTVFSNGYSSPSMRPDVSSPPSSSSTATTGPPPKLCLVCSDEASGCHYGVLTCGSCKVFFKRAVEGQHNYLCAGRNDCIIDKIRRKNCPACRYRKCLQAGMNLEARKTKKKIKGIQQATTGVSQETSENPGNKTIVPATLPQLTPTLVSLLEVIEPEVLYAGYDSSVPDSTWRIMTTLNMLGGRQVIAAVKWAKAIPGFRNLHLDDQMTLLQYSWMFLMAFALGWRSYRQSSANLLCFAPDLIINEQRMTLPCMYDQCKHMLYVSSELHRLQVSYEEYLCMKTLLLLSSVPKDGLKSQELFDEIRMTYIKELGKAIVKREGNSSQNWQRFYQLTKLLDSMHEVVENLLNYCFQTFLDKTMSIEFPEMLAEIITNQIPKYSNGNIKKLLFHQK
Experimental: GR Fluorescence Polarization Assay
Fluorescence polarization assays were carried out using the PolarScreen™ Glucocorticoid Receptor Competitor Assay, Red from Invitrogen (P2893). The assay buffer was prepared according to the manufacturer's protocol and used to dilute the fluorescent glucocorticoid and GR. Compounds were prepared and serial diluted 1:4 in DMSO. Compound, fluorescent glucocorticoid and GR were added in a final volume of 20 μL and incubated overnight at 4° C. Fluorescent polarization was measured on the PerkinElmer Envision®.

IC50 [nM]	Structure (SMILES)
1000 to 10000	Cn1nc(-c2ccccn2)c2c1NCCSC2c1ccc(-c2cnn(CCN3CCOCC3)c2)cc1Cl (centres unmarked) [U.5]
1000 to 10000	Cc1ncccc1NC(=O)c1ccc([C@H]2SC[C@@H](C)Nc3c2c(-c2ccccn2)nn3C)c(C#N)c1 (single isomer, unassigned) [M.19, 3-cyano-4-(1,7-dimethyl-3-(pyridin-2-yl)-4,6,7,8-tetrahydro-1H-pyrazolo[3,4-e][1,4]thiazepin-4-yl)-N-(2-methylpyridin-3-yl)benzamide]
1000 to 10000	Cc1ccc(Oc2ccc(C3SCCNc4c3c(C)nn4C)cc2)cc1 (centres unmarked) [D.75]
1000 to 10000	CCn1nc(-c2ccccn2)c2c1N[C@@H](C)CS[C@@H]2c1ccc(C#CCN(C)C)cc1C (single isomer, unassigned) [M.64, 3-(4-(1-ethyl-7-methyl-3-(pyridin-2-yl)-4,6,7,8-tetrahydro-1H-pyrazolo[3,4-e][1,4]thiazepin-4-yl)-3-methylphenyl)-N,N-dimethylprop-2-yn-1-amine]
100 to 1000	Cn1nc(-c2ccccn2)c2c1NCCSC2c1ccc(-c2ccc(S(C)(=O)=O)nc2)cc1Cl (centres unmarked) [U.13]
1000 to 10000	Cc1cc(C#N)ccc1C1SC(C)CNc2c1c(C)nn2C (centres unmarked) [G.11]
100 to 1000	Cc1ccc(-c2nn(C)c3c2C(c2ccc(Cl)cc2Cl)SCCN3)cc1 (centres unmarked) [D.87]
1000 to 10000	Cn1nc(-c2ccccn2)c2c1NCCSC2c1ccc(-c2cncnc2)cc1Cl (centres unmarked) [U.2]
> 10000	Cc1ncccc1NC(=O)N1CCC(C2SCCNc3c2c(-c2ccccn2)nn3C)CC1 (centres unmarked)
1000 to 10000	Cn1nc(-c2ccc(OC(F)(F)F)cc2)c2c1NCCSC2c1ccc(Cl)cc1Cl (centres unmarked) [D.95]
1000 to 10000	Cc1cc(Br)ccc1C1CCC(=O)Nc2c1c(C)nn2C (centres unmarked) [AA.2]
100 to 1000	CCn1nc(-c2ccccn2)c2c1N[C@H](C)CS[C@@H]2c1ccc(CCCO)cc1C (single isomer, unassigned) [M.34, 3-(4-(1-ethyl-7-methyl-3-(pyridin-2-yl)-4,6,7,8-tetrahydro-1H-pyrazolo[3,4-e][1,4]thiazepin-4-yl)-3-methylphenyl)propan-1-ol]
1000 to 10000	Cc1ncccc1NC(=O)c1ccc([C@H]2SC[C@H](C)Nc3c2c(-c2ccccn2)nn3C)c(C#N)c1 (single isomer, unassigned) [M.18, 3-cyano-4-(1,7-dimethyl-3-(pyridin-2-yl)-4,6,7,8-tetrahydro-1H-pyrazolo[3,4-e][1,4]thiazepin-4-yl)-N-(2-methylpyridin-3-yl)benzamide]
< 100	CCn1nc(-c2ccccn2)c2c1NC(=O)CCC2c1ccc(Br)cc1C (centres unmarked) [AA.3]
100 to 1000	Cc1ccc(Oc2ccc(C3SC(C)(C)CNc4c3c(C)nn4C)cc2)cc1 (centres unmarked) [D.78]
100 to 1000	Cn1nc(-c2ccccn2)c2c1NCCSC2c1ccc(-c2cnn(CC(N)=O)c2)cc1Cl (centres unmarked) [U.17]
100 to 1000	CCn1nc(-c2ccccn2)c2c1N[C@H](C)CS[C@@H]2c1ccc(C(N)=O)cc1C (single isomer, unassigned) [M.47, 4-(1-ethyl-7-methyl-3-(pyridin-2-yl)-4,6,7,8-tetrahydro-1H-pyrazolo[3,4-e][1,4]thiazepin-4-yl)-3-methylbenzamide]
1000 to 10000	Cn1nc(-c2ccccn2)c2c1N(CC(N)=O)CCSC2c1ccc(Cl)cc1Cl (centres unmarked)
1000 to 10000	Cn1nc(-c2ccccn2)c2c1NCCSC2c1ccc(-c2cncc(C(N)=O)c2)cc1Cl (centres unmarked) [U.7]

IC50 [nM]	Structure (SMILES)
1000 to 10000	CNC(=O)c1cncc(-c2ccc(C3SCCNc4c3c(-c3ccccn3)nn4C)c(Cl)c2)c1 (centres unmarked) [U.8]
1000 to 10000	Cn1nc(C(F)(F)F)c2c1NCCSC2c1ccc(Cl)cc1Cl (centres unmarked) [D.91]
100 to 1000	CCn1nc(-c2ccccn2)c2c1NCCSC2c1ccc(C(=O)Nc2nnn[nH]2)cc1C (centres unmarked) [S.6]
1000 to 10000	Cc1cc(CCCO)ccc1[C@H]1SC[C@@H](C)Nc2c1c(-c1ccccn1)nn2C (single isomer, unassigned) [M.50, 3-(4-(1,7-dimethyl-3-(pyridin-2-yl)-4,6,7,8-tetrahydro-1H-pyrazolo[3,4-e][1,4]thiazepin-4-yl)-3-methylphenyl)propan-1-ol]
100 to 1000	CCn1nc(-c2ccccn2)c2c1N[C@@H](C)CS[C@@H]2c1ccc(CCCO)cc1C (single isomer, unassigned) [M.33, 3-(4-(1-ethyl-7-methyl-3-(pyridin-2-yl)-4,6,7,8-tetrahydro-1H-pyrazolo[3,4-e][1,4]thiazepin-4-yl)-3-methylphenyl)propan-1-ol]
1000 to 10000	Cc1cc(C(=O)Nc2cccnc2C)ccc1[C@H]1SC[C@H](C)Nc2c1c(-c1ccncn1)nn2C (single isomer, unassigned) [M.59, 4-(1,7-dimethyl-3-(pyrimidin-4-yl)-4,6,7,8-tetrahydro-1H-pyrazolo[3,4-e][1,4]thiazepin-4-yl)-3-methyl-N-(2-methylpyridin-3-yl)benzamide]
1000 to 10000	Cc1cc(C(=O)Nc2cccnc2C)ccc1C1CCC(=O)Nc2c1c(C)nn2C (centres unmarked) [O.1, 4-(1,3-Dimethyl-7-oxo-1,4,5,6,7,8-hexahydropyrazolo[3,4-b]azepin-4-yl)-3-methyl-N-(2-methylpyridin-3-yl)benzamide]
1000 to 10000	Cc1cc(CCCO)ccc1[C@H]1SC[C@H](C)Nc2c1c(-c1ccccn1)nn2C (single isomer, unassigned) [M.49, 3-(4-(1,7-dimethyl-3-(pyridin-2-yl)-4,6,7,8-tetrahydro-1H-pyrazolo[3,4-e][1,4]thiazepin-4-yl)-3-methylphenyl)propan-1-ol]
1000 to 10000	CC(=O)N1CCN(c2ccc(-c3ccc(C4SCCNc5c4c(-c4ccccn4)nn5C)c(Cl)c3)cn2)CC1 (centres unmarked) [U.14]
< 100	Cc1nn(C)c2c1C(c1ccc(Cl)cc1)SC(CCO)CN2 (centres unmarked) [D.100]
100 to 1000	CCn1nc(-c2ccccn2)c2c1NCCSC2c1ccc(C(=O)Nc2onc(C)c2C#N)cc1C (centres unmarked) [S.7]
1000 to 10000	Cc1cc(CCC(C)(C)O)ccc1[C@H]1SC[C@@H](C)Nc2c1c(-c1ccccn1)nn2C (single isomer, unassigned) [M.43, 4-(4-(1,7-dimethyl-3-(pyridin-2-yl)-4,6,7,8-tetrahydro-1H-pyrazolo[3,4-e][1,4]thiazepin-4-yl)-3-methylphenyl)-2-methylbutan-2-ol]
1000 to 10000	CNC(=O)c1ccc(-c2nn(C)c3c2C(c2ccc(Cl)cc2Cl)SCCN3)nc1 (centres unmarked) [I.3]
1000 to 10000	COC(=O)c1ccc(-c2nn(C)c3c2C(c2ccc(Cl)cc2Cl)SCCN3)nc1 (centres unmarked) [E.6, methyl 6-[4-(2,4-dichlorophenyl)-1-methyl-4,6,7,8-tetrahydropyrazolo[3,4-e][1,4]thiazepin-3-yl]pyridine-3-carboxylate]
1000 to 10000	CCn1nc(-c2ccccn2)c2c1N[C@@H](C)CS[C@@H]2c1ccc(C(N)=O)cc1C (single isomer, unassigned) [M.45, 4-(1-ethyl-7-methyl-3-(pyridin-2-yl)-4,6,7,8-tetrahydro-1H-pyrazolo[3,4-e][1,4]thiazepin-4-yl)-3-methylbenzamide]
1000 to 10000	Cn1nc(-c2ccc(C(=O)O)cn2)c2c1NCCSC2c1ccc(Cl)cc1Cl (centres unmarked)
100 to 1000	Cc1cc(C#CCCO)ccc1[C@H]1SC[C@@H](C)Nc2c1c(-c1ccccn1)nn2C (single isomer, unassigned) [M.56, 4-(4-(1,7-dimethyl-3-(pyridin-2-yl)-4,6,7,8-tetrahydro-1H-pyrazolo[3,4-e][1,4]thiazepin-4-yl)-3-methylphenyl)but-3-yn-1-ol]
1000 to 10000	COc1ccc(C2SCCNc3c2c(C)nn3C)cc1 (centres unmarked) [D.97]
100 to 1000	Cn1nc(-c2ccccn2)c2c1NCCSC2c1ccc(-c2cncc(C#N)c2)cc1Cl (centres unmarked) [U.4]

Structure (SMILES)	IC50 [nM]
Cc1cc(C#N)ccc1C1SCCNc2c1c(-c1ccccn1)nn2C (single isomer, unassigned) [M.21, 3-methyl-4-(1-methyl-3-(pyridin-2-yl)-4,6,7,8-tetrahydro-1H-pyrazolo[3,4-e][1,4]thiazepin-4-yl)benzonitrile]	< 100
Cc1cc(Cl)ccc1C1SCCNc2c1c(-c1ccccn1)nn2C (single isomer, unassigned)	< 100
CCn1nc(-c2ccccn2)c2c1NCCSC2c1ccc(C(=O)Nc2cccnc2C)cc1C (single isomer, unassigned) [M.61, 4-(1-ethyl-3-(pyridin-2-yl)-4,6,7,8-tetrahydro-1H-pyrazolo[3,4-e][1,4]thiazepin-4-yl)-3-methyl-N-(2-methylpyridin-3-yl)benzamide]	100 to 1000
Cc1ncccc1NC(=O)c1ccc(C2SCCNc3c2c(-c2ccccn2)nn3C)c(Cl)c1 (centres unmarked)	< 100
Cc1cc(Cl)ccc1C1SCC(C)Nc2c1c(-c1ccccn1)nn2C (single isomer, unassigned)	< 100
Cc1cc(C(=O)Nc2cccnc2C)ccc1C1SCC(CO)Nc2c1c(-c1ccccn1)nn2C (single isomer, unassigned)	1000 to 10000
